From patent publication US20200370076A1, “USE OF GALACTURONATE AND OR GALACTURONATE POLYMERS IN CONJUNCTION WITH CARBOHYDRATES TO CONTROL METABOLIC STATE OF ORGANISMS” (Department of the Army, U.S. Army CCDC Army Research …, priority 2019, published 2020) come the findings set out here.

In test [1] the test system is Clostridium acetobutylicum. The test is described as follows: Substrate concentration over time during co-fed fermentation (FIG. 4). Format: cell-based. The text has this: FIG. 4 is a graph illustrating the uptake of individual oxidized sugars mixed for co-feeding during a fermentation process of Clostridial acetobutylicum; FIG. 4, with reference to FIGS. 1 through 3, is a graph illustrating the concentration of various feedstock during a fermentation process. […] The co-utilization of any of galacturonate and galacturonate polymers with glucose could be used to control the metabolic state of the cells by altering the production of reduced electron carriers such as NADH and/or NADPH. This can allow for fine-tuning production of chemicals. The overall trend of the concentration over time shown in FIG. 4 for galacturonic (gal) acid and glucose (glu) is generally the same; i.e., a gradual decrease in the concentration over time. For example, the concentration of the galacturonic acid is approximately 7.5 at time 0 with a gradual decline in concentration to approximately 4 at approximately 3 hours, followed by a greater decline in concentration resulting in a 0 concentration at approximately 7 hours.

In test [2] the test system is Clostridium acetobutylicum. The test is described as follows: Fermentation product formation by Clostridium acetobutylicum grown on different substrates. Format: cell-based. Conditions: organism grown on the named substrate. As to the method: Experimentally, mixtures of any of galacturonate and galacturonate polymers with glucose are fed to Clostridium acetobutylicum. It was observed that the organism co-utilized the substrates. […] Bacterial culture conditions and strains have been previously published. […] Clostridium acetobutylicum strain ATCC 824 was obtained from ATCC and cultured using company protocol at 37° C. into Clostridial growth medium or CGM containing 0.75 g KH2PO4, 0.75 g K2HPO4, 1.0 g NaCl, 0.017 g MnSO4.5H2O, 0.70 g MgSO4.7H2O, 0.01 g FeSO4.7H2O, 2.0 g […], 5.0 g yeast extract, 2.0 g (NH4)2SO4, and 0.5% final concentration of desired carbohydrate-D-glucose, D-galacturonic acid, D-gluconic acid-at pH 6.5. Active cultures from initial growth stock were added to potato glucose medium to be maintained and stored as a spore solution. Potato glucose medium or PGM contains per liter of H2O-150 g grated fresh potato, 10 g D-glucose, 0.5 g (NH4)SO4, and 3 g CaCO3. The medium was boiled for 1 hour and strained through gauze before sterilization and use for culture. Spore solution was activated for culturing through a heat shock at 80° C. for 9 minutes. Shocked spore solution was added to CGM containing the feed stock of choice and grown to late log of 0.8 at optical density of 600 nm (OD600) at 37° C. Theses cultures were then used to perform antibiotic sensitivity experiments.

On to `O=C[C@H](O)[C@@H](O)[C@@H](O)[C@H](O)C(=O)O` [galacturonate, D-galacturonic acid], for which the “concentration of feedstock during fermentation” value was “approximately 4” in test [1] (FIG. 4, approximately 3 hours); 0 in test [1] (FIG. 4, approximately 7 hours); “approximately 7.5” in test [1] (FIG. 4, glucose/galacturonate co-feeding, time 0). For the same compound, in test [2], the acetate produced result was “approximately 23.6 mM”. The butyrate produced entry in test [2] was “approximately 0.6 mM”.
